Source: patent US10000521B2 (priority 2013, dated 2018)

What was measured:
HCV replicon = assay: IC50 assay with HCV luciferase replicon cell-line; assay type: cell-based; conditions: Hepatitis C virus, Huh-7; Huh7 cell line containing HCV replicon with luciferase reporter, 48 h
Text: Plating Cells: The cells used in these assays were a liver-derived Huh7 cell line containing an HCV replicon bearing a luciferase reporter gene. The Huh7 cell-line can be obtained from various sources including the Japanese Collection of Research Bioresources (JCRB), Osaka, Japan. The Huh7 cell line containing an HCV replicon bearing a luciferase reporter gene can be prepared essentially as described by Vrolijk J M, et al. (J Virol Methods. (2003) 110(2):201-9). Cells were passaged when they reached about 70% confluency.
These 0.5 mM dilutions were then used to further serially dilute the compounds in DMEM+2% FBS+0.5% DMSO to keep the concentration of DMSO in each condition identical.
The Glo Lysis Buffer and the Bright Glow reagent was allowed to warm to room temperature for about 30 min in the dark. […] The media was removed from cells, and the cells were gently washed with about 100 μL of phosphate buffered saline (PBS). […] It should be noted that luciferin has a half-life of approximately 30 min at room temperature after it is added to the plate. […] The data was saved and used to calculate the percent inhibition of luciferase activity at each drug concentration. […] Curve equation: (m1−m2)/(1+(x/m3)^m4); m1=100; m2=0.01; m3=0.01; m4=0.01; the equation is: […]

Huh7 cells = assay: TC50 MTS cell viability assay with Huh7 cells (48 h); assay type: cell-based; conditions: Homo sapiens, Huh-7
Text: Plating Cells: Huh7 cells (a hepatocellular carcinoma cell-line; these cells can be obtained from the Japanese Collection of Research Bioresources (JCRB), Osaka, Japan) were used to determine the TC50 for representative compounds of the present invention. Briefly, Huh7 cells were passaged when they reached about 70% confluency. The cells were counted using a hemocytometer following dilution of the cells to about 0.5×10^5 cells per mL in DMEM with 10% fetal bovine serum (FBS). The cells were plated in a clear 96-well plate (about 5,000 cells in 100 μL per well). The cells were allowed to attach for about 24 hours at 37° C.
Treating of the cells: The DMEM media without phenol red containing 2% FBS was pre-warmed to 37° C. […] Following dilution, the final DMSO concentration was about 0.5% (v/v). […] The plates were then returned to the incubator and incubated with the cells for 48 h at 37° C.
(§1) The 96-well plate with cells incubated with test compound was removed from the 37° C. incubator. The appropriate amounts of the MTS and PMS reagents were removed from the kit and mixed well. The reagents were maintained in the dark due to their light sensitivity. […] The solutions were mixed completely in the wells prior to each reading.

[1] = TC50 assay in different human cell lines (96 h), HEK293; assay type: cell-based; conditions: HEK293 cells, about 96 h, MTS assay
Experimental: as §1
(§2) Plating Cells: Huh7, HEPG2, HEK293, MCF-7, or BxPC3 cells (which can be obtained from American Type Culture Collection, ATCC) were passaged when they were about 70% confluent. […] The cells following passaging were allowed to attach for about 24 hours at 37° C.
(§3) The plates were then returned to the incubator, and cells incubated for about 96 h at 37° C.
(§4) MTS Assay: Assay was carried out as described above.

Huh7 = assay: TC50 assay in different human cell lines (96 h), Huh7; assay type: cell-based; conditions: Huh-7, about 96 h, MTS assay
Experimental: as §1, §2, §3, §4

MCF-7 = assay: TC50 assay in different human cell lines (96 h), MCF-7; assay type: cell-based; conditions: MCF7, about 96 h, MTS assay
Experimental: as §1, §2, §3, §4

BxPC3 = assay: TC50 assay in different human cell lines (96 h), BxPC3; assay type: cell-based; conditions: BXPC-3, about 96 h, MTS assay
Experimental: as §1, §2, §3, §4

[2] = Stability test at different pH conditions (HPLC); assay type: physicochemical
Experimental: HPLC analysis: 100 μl of the incubated solution was loaded onto a Vydac C18 analytical column 4.6/250, and the mobile phase run at 1 mL/min water with the following procedures: a. Inject 100 μl the incubated solution; b. Water for 5 minutes at 1 ml/min; c. 0-100% acetonitrile over 30 minutes; d. Back to 100% water.
Analysis: Standard HPLC analysis software was used to quantitate the area under each peak. Degradation peaks were quantitated as a percentage of the peak of the same amount of control sample (no heat treatment).

HEPG2 = assay: TC50 assay in different human cell lines (96 h), HEPG2; assay type: cell-based; conditions: about 96 h, MTS assay
Experimental: as §1, §2, §3, §4

PK9 cells [3] = assay: TC50 assay with inhibition of ENT1, PK9 cells; assay type: cell-based; conditions: Homo sapiens, PK9, 48 h, PK9 cells (48 h)
Experimental: Plating Cells: Huh7 cells or PK9 cells were seeded in 96-well plates at a density of 5,000 cells/well or 2,500 cells/well, respectively, and the plates were incubated at 37° C. for 24 h to allow for cell attachment.
Treatment with equilibrative nucleoside transporter 1 (ENT1) Inhibitor: The media was then removed from the plates and replaced with media containing 2% FBS, 0.5% DMSO, and either 10 μM dipyramidole or 10 μM S-(4-nitrobenzyl)-6-thioinosine (NBTI).
Treating with Control & Compound 1: After incubation with the ENT1 inhibitor, the cells were treated with each compound at final concentrations ranging from 500 μM to 0 μM in triplicate in media containing 2% FBS, 0.5% DMSO, and either 10 μM dipyridamole or 10 μM NBTI.

RPK9 cells = assay: cells; conditions: Homo sapiens, 48 h, read-out: TC50 (μM), 48 h treatment
Experimental: (§5) Plating Cells: PK9 or RPK9 cells were seeded in 96-well plates at a density of 2,500 cells/well or 2,500 cells/well, respectively, and the plates were incubated at 37° C. for 24 h to allow for cell attachment.
(§6) Treating with Control & Compound 1: The cells were treated with each compound at final concentrations ranging from 500 μM to 0 μM in triplicate in media containing 2% FBS and 0.5% DMSO.
(§7) The RPK9 cells are described in Saiki, T., et al. (2012) Biochim. Biophys. Res. Commun. 421, 98-104).

[4] = In vivo pharmacokinetic assessment (LC-MS/MS, plasma and liver); conditions: mice, oral, plasma and liver samples
Experimental: All pharmacokinetic studies were performed with CD-1 ICR mice (female, 4-6 week old; 20-30 gram body weight), and three mice were used at each dose level and at each time point for each compound tested. […] Tetrahydrouridine (THU) was immediately added to plasma samples at a final concentration of 25 μg/mL to prevent deamination of dFdC after collection, and the samples were subsequently flash-frozen and stored at −80° C. until analysis. Approximately 200-300 mg of each mouse liver was dissected and homogenized in 150 μL of phosphate buffered saline (PBS) containing 25 μg/mL THU, resulting in 2 mg liver/μL saline homogenate. These liver homogenates were also flash-frozen and stored at −80° C. until analysis. Equivalent amounts of blood plasma and liver tissue were also collected from untreated mice and used to prepare calibration standards and quality controls. An LC-MS/MS assay was utilized to simultaneously quantify the concentrations of compound 1, dFdC and dFdU in each of the plasma and liver samples.

PK9 cells [5] = assay: TC50 assay, effect of deficient deoxycytidine kinase activity, PK9 cells; assay type: cell-based; conditions: Homo sapiens, 48 h, read-out: TC50 (μM), 48 h treatment
Experimental: as §5, §6, §7

For O=C(Nc1ccn(C2O[C@H](CO)[C@@H](O)C2(F)F)c(=O)n1)c1cc2c(cc1[N+](=O)[O-])OCO2 (stereo in doubt) [Compound 9], the IC50 (HCV replicon) was 0.047 ± 0.004 µM and the CC50 (Huh7 cells) was > 500 µM.
Compound O=C(Nc1ccn(C2O[C@H](CO)[C@@H](O)C2(F)F)c(=O)n1)c1ccc2c(c1)OCCO2 (stereo partly drawn) [Compound 2, N-(1-((4R,5R)-3,3-difluoro-4-hydroxy-5-(hydroxymethyl)tetrahydrofuran-2-yl)-2-oxo-1,2-dihydropyrimidin-4-yl)-2,3-dihydrobenzo[b][1,4]dioxine-6-carboxamide] has a CC50 at 96 h [1] of 5.61 µM, a CC50 (Huh7) of 3.34 µM and a CC50 (MCF-7) of 1.44 µM. For the same compound, the CC50 (BxPC3) was 1.15 µM, the IC50 (HCV replicon) was 0.127 ± 0.009 µM and the CC50 (Huh7 cells) was 855 ± 166 µM. The “Compound remaining (%)” value ([2]; Pretreatment) was 100%, the “Compound remaining (%)” value ([2]; pH 1, 40° C., 4 h) was 71% and the “Compound remaining (%)” value ([2]; pH 2, 40° C., 4 h) was 100%. The “Compound remaining (%)” value ([2]; pH 4, 40° C., 4 h) was 100%, the “Compound remaining (%)” value ([2]; pH 6, 40° C., 4 h) was 100% and the “Compound remaining (%)” value ([2]; pH 8, 40° C., 4 h) was 100%. It also gave a CC50 (HEPG2) of 1.13 µM.
In the case of O=C(Nc1ccn([C@@H]2O[C@H](CO)C(O)C2(F)F)c(=O)n1)c1ccc2c(c1)OCCCO2 (some centres unmarked) [Compound 3], the IC50 (HCV replicon) is reported as 0.092 ± 0.008 µM and the CC50 (Huh7 cells) is reported as 881 ± 287 µM.
With CC1(C)Cc2ccc(C(=O)Nc3ccn([C@@H]4O[C@H](CO)C(O)C4(F)F)c(=O)n3)cc2O1 (some centres unmarked) [Compound 4] the IC50 (HCV replicon) was 0.177 ± 0.045 µM and the CC50 (Huh7 cells) was 1160 ± 204 µM.
Work on O=C(Nc1ccn([C@@H]2O[C@H](CO)C(O)C2(F)F)c(=O)n1)c1ccc2c(c1)CCO2 (some centres unmarked) [Compound 5] yielded an IC50 (HCV replicon) of 0.145 ± 0.017 µM and a CC50 (Huh7 cells) of 954 ± 247 µM.
Compound O=C(Nc1ccn([C@@H]2O[C@H](CO)C(O)C2(F)F)c(=O)n1)c1c(Br)ccc2c1OCO2 (some centres unmarked) [Compound 6] has an IC50 (HCV replicon) of 0.34 ± 0.045 µM and a CC50 (Huh7 cells) of 2210 ± 821 µM.
O=C(Nc1ccn([C@@H]2O[C@H](CO)C(O)C2(F)F)c(=O)n1)c1ccc2c(c1)OC(F)(F)O2 (some centres unmarked) [Compound 7] showed an IC50 (HCV replicon) of 0.046 ± 0.027 µM and a CC50 (Huh7 cells) of 188 ± 50 µM.
With Cc1cc2c(cc1C(=O)Nc1ccn([C@@H]3O[C@H](CO)C(O)C3(F)F)c(=O)n1)OCCO2 (some centres unmarked) [Compound 8] the IC50 (HCV replicon) was 1.69 ± 1.06 µM and the CC50 (Huh7 cells) was 626 ± 191 µM.
For Nc1ccn([C@@H]2O[C@H](CO)[C@@H](O)C2(F)F)c(=O)n1 [Gem, 4-amino-1-((2R,4R,5R)-3,3-difluoro-4-hydroxy-5-(hydroxymethyl)tetrahydrofuran-2-yl)pyrimidin-2(1H)-one, reference compound], the CC50 (Huh7) was 3.41 µM, the CC50 (MCF-7) was 0.067 µM and the CC50 (BxPC3) was 0.0029 µM. The CC50 (PK9 cells [3]; 10 μM NBTI) was 1.92 ± 0.78 µM, the CC50 (PK9 cells [3]; 10 μM dipyridamole) was 193 ± 20 µM and the CC50 (PK9 cells [3]; ENT1 inhibitor: None) was 0.095 ± 0.035 µM. The IC50 (HCV replicon) was 0.058 ± 0.006 µM, the CC50 (RPK9 cells) was > 500 µM and the “first-pass metabolism to inactive metabolite dFdU” value [4] was “extensive first-pass metabolism”. The CC50 (PK9 cells [5]) was 0.095 ± 0.035 µM and the CC50 (HEPG2) was 0.311 µM.
